From patent publication US20090328239A1, “BLOOD VESSEL IMAGING AND USES THEREFOR” (Bio Tree Systems, Inc., priority 2006, published 2009)

Tests used:
[1] = test system: human non-small cell lung tumor cell line (A549) xenotopic tumor; experiment: Vascular cast micro-CT analysis of blood vessel diameter distribution in xenotopic tumor model; assay type: in vivo, mice (SCID); conditions: 0.5 mg/kg i.p., vascular casts
Procedure: (§1) A tumor model can be generated by inoculating human non-small cell lung tumor cell line (A549 from ATCC, Inc.) subcutaneously in immunodeficient mice (SCID). SCID male mice (6-8 weeks old from Charles River Inc.) are inoculated subcutaneously in the lower back with a suspension of 1×10^6 human lung tumor cells (A549) in 0.2 ml of PBS. All mice are fed normal chow diet throughout the duration of the experiment. All mice weights are measured throughout the experiment. Tumor size is measured with calipers twice-a-week and tumor volume is calculated using the formula Length^2×Width×0.52. All mice are randomized into two treatment groups (approximately 10 mice per group) when the median tumor volume reaches approximately 500 mm^3. The treatment groups can be treated according to the following schedule using intraperitoneal (i.p.) administration of either a control composition or an anti-angiogenic compound. For example, different levels of an anti-angiogenic compound can be used and the results compared to a control group that is not treated with an anti-angiogenic compound (e.g., Avastin® available from Genentech, South San Francisco, Calif.). For example:
At the end-point, all mice are anesthetized and systemically perfused with a casting agent.
Perfusion with a casting agent, Mercox (available from Ladd Research, Williston, Vt.) can be performed as follows. An initial anticoagulation step for each animal is performed using an i.v. injection of heparin (10,000 U/ml, 0.3 cc/mouse). After 30 minutes, the animals are anesthetized. Each animal's heart is cannulated and the animal perfused with warm physiological saline at physiological pressure (with an open vein draining the organ or with an open vena cava). Perfusion is continued until the organ or animal is clear of blood. Mercox monomer is filtered through a 0.5 μm filter and a casting resin is prepared by mixing 8 ml Mercox, 2 ml methylmethacrylate, and 0.3 ml catalyst. The resin is infused through the same cannula until the onset of polymerization (the resin changes color to brown and emits heat, ˜10 min). The organ or animal is carefully immersed in a 60° C. water bath for 2 hours (or overnight in a sealed container). […] The resulting cast can be analyzed to identify one or more structural characteristics of interest.
(§2) Xenotopic mouse models obtained as described in Example 2 were treated with either a control solution of saline/PBS or an anti-angiogenic preparation of Avastin® at 0.5 mg/kg/i.p. as described above. At the end-point, vascular casts were prepared as described in Example 3 above and analyzed for two treated mice (both treated with Avastin® at 0.5 mg/kg/i.p.) and one control mouse. […]

[2] = test system: human non-small cell lung tumor cell line (A549) xenotopic tumor; experiment: Tumor volume in xenotopic tumor model (caliper measurement); assay type: in vivo, mice (SCID); conditions: 0.5 mg/kg i.p. twice a week; end-point 1.5 weeks after initial treatment; vs saline/PBS control
Procedure: as §1, with “For example, different levels of an anti-angiogenic compound can be used and the results compared to a control group that is not treated with an anti-angiogenic compound (e.g., Avastin® available from Genentech, South San Francisco, Calif.). For example:” left out
as §2

Substance: Avastin®: known monoclonal antibody against vascular endothelial growth factor (VEGF), angiogenesis inhibitor available from Genentech
- Vessel population ratio between large (approximately 147-161 μm) and middle (approximately 33-77 μm) size vessels (FIG. 3) ([1]; treated vs control animals): decreased
- Vessel population ratio between small (approximately 21-35 μm) and middle (approximately 35-49 μm) size vessels (FIG. 2) ([1]; treated vs control animals): decreased
- Percentage of middle diameter sized vessels in treated tumors vs untreated tumors (FIG. 1) ([1]; two treated mice vs one control mouse): higher percentage
- Reduction in small diameter sized vessels in treated tumors vs untreated tumors (FIG. 1) ([1]; two treated mice vs one control mouse, bins 13.8 μm wide): 20%
- Mean tumor volumes, treated vs control group at the end of the experiment [2]: did not differ significantly
